Measurements: US6242564A (priority 1992, dated 2001)

Key:
HTLV-III virus (HIV) = assay: Blockade of viral infection of human T cells (reverse transcriptase activity); format: cell-based; conditions: for Rank order of potencies in inhibiting receptor binding and viral infectivity: FIGS. 2c, 3
Procedure: The treated cells were then panned on a plastic Petri dish that was coated with goat [F(ab')2 ] anti-mouse immunoglobulin (Sero Lab, Eastbury, Mass.) for 20 min at 4° C. The nonadherent cells were then removed, washed, and analyzed for reactivity by flow cytometry. […] Cells were then cultured with phytohemagglutinin (1 μg/ml) for 72 hrs and exposed to HIV as described below. Infected cells were phenotypically characterized when cytotoxicity assays were performed.
The HTLV-III virus used for infection was isolated from an interleukin 2 (IL-2)-dependent cultured T-cell line established from fresh AIDS patient material and passaged into HuT 78, permissive IL-2-independent cell line.
Each determination was performed in duplicate.

[1] = tested on: T4 antigen (gp 120 receptor) on rat hippocampal membranes; assay: Displacement of specific 125I-gp 120 binding to fresh rat hippocampal (brain) membranes
Procedure: ETLV-IIIb isolate of HIV was propaged in H9 cells, and the gp 120 was isolated by immunoaffinity chromatography and preparative NaDodSO4 /PAGE. Purified gp 120 was labeled with 125 by the chloramine-T method.
Fresh human, monkey, and rat hippocampus were quickly homogenized (POLYTRON, Brinkmann Instruments) in 100 vol. of ice-cold 50 mM Hepes (pH 7.4). The membranes collected by centrifugation (15,000×g) were washed in the original buffer volume and were used fresh or stored at -70° C. Before use, brain membranes and highly purified T cells were preincubated for 15-30 min in phosphate-buffered saline (PBS). Preincubated membranes derived from 2 mg (initial we weight) of brain (α100 μg of protein) were incubated with 28,000 cpm of 125I -gp 120 for 1 hour at 37° C. in 200 μl (final volume) of 50 mM Hepes containing 0.1% bovine serum albumin and the peptidase inhibitors bacitracin (0.005%), aprotinin (0.005%), leupeptin (0.001%), and chymostatin (0.001%). Incubations were rapidly vacuum-filtered and counted to determine the receptor-bound material.
Each determination was performed in triplicate; the results of one experiment, which was performed three times with similar results, is shown. Specific binding (FIG. 2b) displaceable by 10 μg/ml of OKT4 and 4A ranged between 27 and 85% of total binding, which was 2,201±74 cpm in the experiment shown.

[2] = target: HIV viral receptors, such as T4 (Homo sapiens, UniProt P01730); assay: General statements of receptor binding / activity, test not specified
gp 120 = conditions: in vitro; cited from earlier work
HIV = conditions: in vitro; cited from earlier work

## C[C@@H](N)C(=O)N[C@@H](CO)C(=O)N[C@H](C(=O)N[C@H](C(=O)N[C@H](C(=O)N[C@@H](CC(N)=O)C(=O)N[C@@H](Cc1ccc(O)cc1)C(=O)N[C@H](C(N)=O)[C@@H](C)O)[C@@H](C)O)[C@@H](C)O)[C@@H](C)O [D-[Ala]1-peptide T-amide]
HTLV-III virus (HIV)
  Rank order of potencies in inhibiting receptor binding and viral infectivity: D-[Ala]1 -peptide T-amide>D-[Ala]1 -peptide T>peptide T>D-[Thr]8 -peptide T-amide

## C[C@H](N)C(=O)N[C@@H](CO)C(=O)N[C@H](C(=O)N[C@H](C(=O)N[C@H](C(=O)N[C@@H](CC(N)=O)C(=O)N[C@@H](Cc1ccc(O)cc1)C(=O)N[C@@H](C(N)=O)[C@H](C)O)[C@@H](C)O)[C@@H](C)O)[C@@H](C)O [D-[Thr]8-peptide T-amide]
[1]
  Loss of receptor binding activity versus peptide T: ≥ 100 fold
HTLV-III virus (HIV)
  Rank order of potencies in inhibiting receptor binding and viral infectivity: D-[Ala]1 -peptide T-amide>D-[Ala]1 -peptide T>peptide T>D-[Thr]8 -peptide T-amide
HTLV-III virus (HIV); human T cells
  Concentration required for significant inhibition of viral infection, relative to the active peptides: 100 fold
HTLV-III virus (HIV); human T cells, FIG. 3
  Blockade of viral infectivity (in words): greatly reduced blockade of viral infection

## CYS-THR-THR-ASN-TYR-THR-CYS (CTTNYTC; printed: CYS-THR-THR-ASN-TYR-THR-CYS) [seven amino acid peptide, core with added cysteines]
[2]
  Activity (test not specified): also active

## VIP: Vasoactive Intestinal Peptide
Gp 120
  Binding of gp 120 to brain tissue: inhibit
HIV
  HIV replication in cell culture: inhibit
